Assay results as given in article PMC8589421, “Impact of Type II LRRK2 inhibitors on signaling and mitophagy” (Biochemical Journal, 2021).
Where two headings read alike, the source gives them in different places.

How the values were obtained:
LRRK2 at Ser935 = assay: LRRK2 Ser935 phospho-immunoblot in wild-type MEFs; assay type: cell-based, mouse; details: MEFs, 2 h dose response
Description: (§1) Wild-type and homozygous LRRK2 [R1441C] […] All cells were grown at 37°C, 5% (by vol) CO2 in a humidified atmosphere and regularly tested for mycoplasma contamination.
(§2) Inhibitors were dissolved in dimethyl sulfoxide (DMSO) (Sigma, #D2650). The inhibitors were diluted 1000× into cell medium. The equivalent volume of DMSO was added to the minus inhibitor controls. Experiments were performed in six-well plates, 10 cm dishes or 15 cm dishes depending on the amount of cell extract required.
(§3) Lysates were incubated on ice for 30 min and clarified by centrifugation at 20 800×g at 4°C for 20 min. Supernatants were quantified by Bradford assay (Bio-Rad Protein Assay Dye Reagent Concentrate #5000006) and samples prepared in 1× lithium dodecyl sulfate sample buffer final concentration (NuPage LDS Sample buffer 4× Invitrogen, #NP0008). When not deployed immediately, lysates were snap-frozen in liquid nitrogen and stored at −80°C until use.
(§4) Cell extracts were mixed with a quarter of a volume of NuPage LDS Sample buffer 4× Invitrogen and heated at 95°C for 5 min. […] At the end of electrophoresis, proteins were electrophoretically transferred onto the nitrocellulose membrane (GE Healthcare, Amersham Protran Supported 0.45 µm NC) at 100 V for 90 min on ice in the transfer buffer (48 mM Tris–HCl and 39 mM glycine supplemented with 20% methanol). Transferred membrane was blocked with 5% (w/v) skim milk powder dissolved in TBS-T [20 mM Tris–HCl, pH 7.5, 150 mM NaCl and 0.1% (v/v) Tween 20] at room temperature for 1 h. The membrane was typically cropped into three pieces, namely the ‘top piece’ (from the top of the membrane to 75 kDa), the ‘middle piece’ (between 75 and 30 kDa) and the ‘bottom piece’ (from 30 kDa to the bottom of the membrane). All primary antibodies were used at 1 μg/ml final concentration and incubated in TBS-T containing 5% (by mass) bovine serum albumin with exception of α-tubulin and GAPDH antibodies that were diluted 1 : 5000 and 1 : 2000, respectively. The top piece was incubated with the indicated rabbit anti-LRRK2 phosphorylation site antibody multiplexed with mouse anti-LRRK2 C-terminus total antibody. The middle piece was incubated with mouse anti-GAPDH or anti-α-tubulin antibody. The bottom pieces were incubated with indicated total and phospho-Rab antibodies. Membranes were incubated in primary antibody overnight at 4°C. Prior to secondary antibody incubation, membranes were washed three times with TBS-T for 10 min each. […] Membranes were washed with TBS-T for three times with a 10 min incubation for each wash. Protein bands were acquired via near infrared fluorescent detection using the Odyssey CLx imaging system and quantified using the Image Studio software.

[1] = tested on: Rab10 phosphorylation, LRRK2[A2016T]; assay: Rab10 Thr73 phospho-immunoblot in inhibitor resistant LRRK2[A2016T] knock-in MEFs; assay type: cell-based, mouse; details: 2 h, up to 3 µM
Description: (§5) Wild-type and homozygous LRRK2 [R1441C] (Jax, stock number: 009346), LRRK2[G2019S] Taconic, (model 13940) and LRRK2 [A2016T] (Jax, stock number: 021828)[7] knock-in MEF cells were isolated from littermate-matched mouse embryos on a C57BL/6J background at day E12.5 as described previously. MEFs were grown in Dulbecco's modified Eagle medium (DMEM GIBCO, #11960-085) containing 10% (by vol) fetal bovine serum (FBS), 2 mM L-glutamine, 100 U/ml penicillin, and […] streptomycin supplemented with non-essential amino acids and 1 mM sodium pyruvate. Human embryonic kidney 293 (HEK293) (#ATCC CRL-1573) and HeLa (#ATCC CCL-2) cells were purchased from American Tissue Culture Collection (ATCC) and cultured in DMEM containing 10% (by vol) FBS, 2 mM L-glutamine, 100 U/ml penicillin, and […] streptomycin. All cells were grown at 37°C, 5% (by vol) CO2 in a humidified atmosphere and regularly tested for mycoplasma contamination.
as §2
(§6) Cells were lysed in an ice-cold lysis buffer containing 50 mM Tris–HCl, pH 7.4, 1% (by vol) Triton X-100, 10% (by vol) glycerol, 150 mM NaCl, 1 mM sodium orthovanadate, 50 mM NaF, 10 mM 2-glycerophosphate, 5 mM sodium pyrophosphate, 1 µg/ml microcystin-LR, and cOmplete EDTA-free protease inhibitor cocktail (Roche, #11836170001). Lysates were incubated on ice for 30 min and clarified by centrifugation at 20 800×g at 4°C for 20 min. Supernatants were quantified by Bradford assay (Bio-Rad Protein Assay Dye Reagent Concentrate #5000006) and samples prepared in 1× lithium dodecyl sulfate sample buffer final concentration (NuPage LDS Sample buffer 4× Invitrogen, #NP0008). When not deployed immediately, lysates were snap-frozen in liquid nitrogen and stored at −80°C until use. […]

[2] = tested on: Rab10 pThr73, LRRK2 [R1441C]; assay: Rab10 Thr73 phospho-immunoblot in LRRK2[R1441C] knock-in MEFs; assay type: cell-based, mouse; details: Mus musculus, 2 h, read-out: LRRK2 [R1441C] Rab10 pThr73 IC50
Description: as §5, §2, §6

[3] = tested on: Dundee panel of 140 protein kinases; assay: Kinase profiling; assay type: biochemical
Text: […] Results for each kinase are presented as the mean kinase activity ±S.D. for an assay undertaken in duplicate relative to a control kinase assay in which the inhibitor was omitted. Abbreviations and assay conditions used for each kinase are available (http://www.kinase-screen.mrc.ac.uk/services/premier-screen).

[4] = tested on: LRRK2 mediated phosphorylation of Rab10 at Thr73; assay: Rab10 Thr73 phospho-immunoblot in wild-type MEFs; assay type: cell-based, mouse; details: Mus musculus, 2 h
Description: as §1, §2, §3, §4

[5] = tested on: Rab10 pThr73, LRRK2 [G2019S]; assay: Rab10 Thr73 phospho-immunoblot in LRRK2[G2019S] knock-in MEFs; assay type: cell-based, mouse; details: Mus musculus, 2 h, read-out: LRRK2 [G2019S] Rab10 pThr73 IC50
Description: as §5, §2, §6

[6] = tested on: LRRK2 Ser935 phosphorylation, LRRK2[R1441C]; assay: LRRK2 Ser935 phospho-immunoblot in LRRK2[R1441C] knock-in MEFs; assay type: cell-based, mouse; details: dose and time dependent
Description: as §5, §2
Cells were lysed in an ice-cold lysis buffer containing 50 mM Tris–HCl, pH 7.4, 1% (by vol) Triton X-100, 10% (by vol) glycerol, 150 mM NaCl, 1 mM sodium orthovanadate, 50 mM NaF, 10 mM 2-glycerophosphate, 5 mM sodium pyrophosphate, 1 µg/ml microcystin-LR, and cOmplete EDTA-free protease inhibitor cocktail (Roche, #11836170001). Lysates were incubated on ice for 30 min and clarified by centrifugation at 20 800×g at 4°C for 20 min. Supernatants were quantified by Bradford assay (Bio-Rad Protein Assay Dye Reagent Concentrate #5000006) and samples prepared in 1× lithium dodecyl sulfate sample buffer final concentration (NuPage LDS Sample buffer 4× Invitrogen, #NP0008). When not deployed immediately, lysates were snap-frozen in liquid nitrogen and stored at −80°C until use.
Cell extracts were mixed with a quarter of a volume of NuPage LDS Sample buffer 4× Invitrogen and heated at 95°C for 5 min. […] At the end of electrophoresis, proteins were electrophoretically transferred onto the nitrocellulose membrane (GE Healthcare, Amersham Protran Supported 0.45 µm NC) at 100 V for 90 min on ice in the transfer buffer (48 mM Tris–HCl and 39 mM glycine supplemented with 20% methanol). Transferred membrane was blocked with 5% (w/v) skim milk powder dissolved in TBS-T [20 mM Tris–HCl, pH 7.5, 150 mM NaCl and 0.1% (v/v) Tween 20] at room temperature for 1 h. […]

[7] = tested on: mouse embryonic fibroblast cells (MEFs); assay: Cell morphology and attachment of MEFs; assay type: cell-based

Compound | effect on LRRK2 Ser935 phosphorylation (LRRK2 at Ser935) | effect of A2016T mutation on inhibition of Rab10 phosphorylation [1] | IC50 [2] | number of the 140 kinases assayed suppressed by over 80% ([3]; 1 μM inhibitor) | IC50 ([4]; read-out: LRRK2 WT Rab10 pThr73 IC50, wild type MEFs littermate matched to LRRK2[G2019S], 2 h, panel (B)) | IC50 ([4]; read-out: LRRK2 WT Rab10 pThr73 IC50, wild type MEFs littermate matched to LRRK2[R1441C], 2 h, panel (A)) | IC50 [5] | effect on Ser935 phosphorylation in LRRK2[R1441C] knock-in cells [6] | number of the 140 kinases assayed suppressed by over 80% ([3]; 0.1 μM inhibitor) | concentration that impacted cell morphology and attachment [7] | inhibition at 10 µM ([4]; wild-type MEFs, 10 μM)
C[C@@H]1CN(c2cc(-c3n[nH]c4ccc(OC5(C)CC5)cc34)ncn2)C[C@H](C)O1 [MLi-2] | complete dephosphorylation | markedly suppressed inhibition of Rab10 phosphorylation |  |  |  |  |  |  |  |  | 
CNC(=O)c1cc(Oc2ccc(NC(=O)Nc3cc(C(C)(C)C)nn3-c3ccc4ncccc4c3)c(F)c2)ccn1 [Rebastinib] | did not induce dephosphorylation of Ser935 | markedly blocked | 1310 nM | 18 | 478 nM | 539 nM | 1070 nM | rescue Ser935 phosphorylation |  |  | 
Cc1ccc(C(=O)Nc2ccc(CN3CCN(C)CC3)c(C(F)(F)F)c2)cc1C#Cc1cnc2cccnn12 [Ponatinib] | without affecting Ser935 phosphorylation |  |  | 20 |  |  |  |  | 14 | above 10 μM | ~50%
